How the values were obtained:
[1] = test system: PBMC from FIV-vaccinated cats; test: Feline IFNγ ELISpot of PBMC from vaccinated cats; format: cell-based, cat; details: for IFNγ production: cats of Group 1, MAP Vaccine Trial 1 (FIG. 3)
Method: (§1) IFNγ and IL2 ELISpot analyses were performed using feline IFNγ ELISpot and feline IL2 ELISpot kits (R&D Systems, Cat# SEL764 and SEL1890) as described. The threshold is defined as ≥50 spot forming units (SFU) per 1×10^6 PBMC when counted with MVS ELISpot Reader (MVS Pacific, LLC). Each result is an average of the duplicate samples after subtraction of the average value of the media controls.
(§2) Concurrently, the overlapping peptide pools of FIV structural/enzyme proteins were used to stimulate PBMC and T cells from FIV-vaccinated cats. These cats were vaccinated with prototype dual-subtype FIV vaccine which was the prototype to our commercial FIV vaccine (Coleman et al., 2014). The feline assays (Example 1) equivalent to those of human assays (Sanou et al., 2013; Roff et al., 2015) were used except for ICS analysis. In place of ICS for cytolysin/cytotoxins, IL2 ELISpot analysis was performed. […] The results for FIV-vaccinated cats included IFNγ and IL2 productions and CD3^+CD4+ and CD3^+CD8^+ T-cell proliferation (Table 9, the second set of results).
(§3) The feline IFNγ and L2 ELISpot analyses of PBMC to FIV MAPs and peptides were performed as previously described (Abbott et al. (2012)) using feline IFNγ modular kit (R&D Systems, Minneapolis, Minn.) and feline IL2 modular kit (R&D Systems). All results shown in the figures (FIGS. 8A-1, 8B-1, 8A-2, 8B-2, 8A-3, 8B-3) are after subtracting the average value of the results from all control cats.
(§4) The second parameter evaluated was the ability of the peripheral blood mononuclear cells (PBMC) from vaccinated and control cats to produce IL2 and interferon-γ (IFNγ) proteins in responses to FIV MAPs and peptides (FIGS. 8A-1, 8A-2, 8A-3, 8B-1, 8B-2, 8B-3) using feline IL2 and IFNγ ELISpot assays (Aranyos et al. (2016); Abbott et al. (2012)). IL2 enhances the proliferation of FIV-specific CD4^+ T cells and CD8^+ T cells. IFNγ is known enhance the FIV-specific CTL activities in vaccinated cats (Abbas et al. (2015)).

[2] = test system: PBMC from FIV-vaccinated cats; test: Feline IL2 ELISpot of PBMC from vaccinated cats; format: cell-based, cat
Method: as §1, §2, §3, §4

[3] = test system: feline CD3^+CD4^+ T cells; test: CFSE-based feline CD3+CD4+ T-cell proliferation; set-up: species or system cat; details: FIV-vaccinated cats; for CD4, frequency of responders: FIV epitope peptide; for CDC4^+ T (T-cell proliferation), frequency of responders: FIV peptides
Method: (§5) Carboxyfluorescein diacetate succinimide ester (CFSE)-proliferation was performed according to the manufacturer's protocol (Invitrogen, Grand Island, N.Y.) and processed using a previously described modification. The modification consisted of 2.5×10^5 CFSE-labeled feline PBMC stimulated for 5 days (37° C., 5% CO2) with 4 μg/mL peptide in culture media (RPMI medium 25 µg/mL gentamycin, and 10% heat-inactivated fetal bovine serum (FBS)). Peptide pools consisted of 3-5 overlapping peptides of 4 μg/mL each. The antibodies used for flow cytometry based proliferation analysis consisted of murine anti-feline (Fe) CD3 monoclonal antibody (MAb clone kindly provided by Drs. Yorihiro Nishimura and Takayuki Miyazawa; described in [32]) combined with secondary goat anti-mouse IgG3-APC/CY7 MAb (SouthernBiotech, Birmingham, Ala.; Cat#1100-19); and murine anti-FeCD4-PE MAb (SouthernBiotech, Cat#8130-09); and murine anti-FeCD8 MAb (MAb clone kindly provided by Dr. Nazareth Gengozian, described in [33]) with secondary goat anti-mouse IgG2a-PE/CY7 (Southern Biotech, Cat#1080-17). The murine anti-B220-APC MAb for detecting feline B cells (SouthernBiotech, Cat#1665-11) and previously described MAbs for CFSE were used for FACS phenotyping. Both FACS phenotyping and CFSE-proliferation analyses were performed with BD LSRII and FACSDiva™ Software (BD Biosciences, San Jose, Calif.). The final value for each sample was derived after subtraction of the average value of the media controls using a positive threshold of ≥1 CFSE^low.
as §2
(§6) Carboxyfluorescein diacetate succinimide ester (CFSE)-proliferation analysis was according to the manufacturer's protocol (Invitrogen-Fisher, Carlsbad, Calif.) and processed as previously described (Roff et al. (2015)) using the following modifications: anti-feline CD3 antibody ((clone NZM1), a generous gift from T. Miyazawa (Univ. of Tokyo, Japan)) in combination with APC-conjugated anti-mouse IgG3 (Southern Biotech, Birmingham, Ala.), PE-conjugated anti-feline CD4 antibody (Southern Biotech), and anti-feline CD8 antibody (gift from N. Gengozian, University of Tennessee (Gengozian et al. (1997))) in combination with PE/Cy7-conjugated anti-mouse IgG2b (Southern Biotech) to detect the proliferation of feline CD3^+CD4+ T cells and feline […]. All results shown in the figures (FIGS. 7A-1, 7B-1, 7A-2, 7B-2, 7A-3, 7B-3) are after subtracting the average value of each results from all control cats. The threshold of CFSE proliferation is ≥0.5 CFSE^low. […]

[4] = test system: feline CD3^+CD8^+ T cells; test: CFSE-based feline CD3+CD8+ T-cell proliferation; set-up: species or system cat; details: for CD8, frequency of responders: FIV epitope peptide; for CD8, frequency of responders / CD8^+ T (T-cell proliferation), frequency of responders: FIV-vaccinated cats; for CD8^+ T (T-cell proliferation), frequency of responders: FIV peptides; for % CD8+ T-cell CFSE^low over % CD4+ T-cell CFSE^low ratio (CD8/CD4 response ratio): cats of Group 1, MAP Vaccine Trial 1 (FIG. 3)
Method: as §5, §2, §6

[5] = FIV epitope peptide, FIV-vaccinated cats
[6] = FIV peptides, FIV-vaccinated cats (prototype dual-subtype vaccine)

Sequence | IFNγ, frequency of responders [1, 5] | IFNγ, frequency of responders [1, 6] | IL2, frequency of responders ([2]; FIV epitope peptide) | IL2, frequency of responders ([2]; FIV peptides) | CD4, frequency of responders [3] | CDC4^+ T (T-cell proliferation), frequency of responders [3] | CD8, frequency of responders [4] | CD8^+ T (T-cell proliferation), frequency of responders [4] | IFNγ production [1] | % CD8+ T-cell CFSE^low over % CD4+ T-cell CFSE^low ratio (CD8/CD4 response ratio) [4]
AAAPVNQMQQAVMPSA [FNC2] | ++++ (>54% (++++)) | ++++ (>54% (++++)) | ++++ (>54% (++++)) | ++++ (>54% (++++)) | — (0%-1.4% (—)) | — (0%-1.4%(—)) | ++++ (>54% (++++)) | ++++ (>54% (++++)) |  | 
AEVKLYLKQSLSIANA [Fp14-3/4, overlapping peptide of MAP3] |  | +++ (40.1%-54% (+++)) |  | ++++ (>54% (++++)) |  | +++ (40.1%-54% (+++)) |  | +++ (40.1%-54% (+++)) | 96 SFU/10^6 PBMC | 4.8
GRRYVWCSLPQGWVLSPLIY [FRT7-1/2, overlapping peptide of MAP5] |  | +++ (40.1%-54% (+++)) |  | +++ (40.1%-54% (+++)) |  | +++ (40.1%-54% (+++)) |  | +++ (40.1%-54% (+++)) | no IFNγ response | 11
GSSKEIDMAIVTLKV [FMA2] | ++ (26%-40% (++)) | ++ (25.1%-40% (++)) | ++ (26%-40% (++)) | ++ (25.1%-40% (++)) | ++++ (>54% (++++)) | ++++ (>54% (++++)) | ++++ (>54% (++++)) | ++++ (>54% (++++)) |  | 
KFLLDTGADITILN [FPR2] | ++++ (>54% (++++)) | ++++ (>54% (++++)) | ++++ (>54% (++++)) | ++++ (>54% (++++)) | ++++ (>54% (++++)) | ++++ (>54% (++++)) | ++++ (>54% (++++)) | ++++ (>54% (++++)) |  | 
NVAVGVGGKSKKF [FMA1] | ++++ (>54% (++++)) | ++++ (>54% (++++)) |  | — (0%-1.4%(—)) | +++ (41%-54% (+++)) | +++ (40.1%-54% (+++)) | ++++ (>54% (++++)) | ++++ (>54% (++++)) |  | 
TLEKRPEILIFVNG [FPR1] | — (0%-1.4% (—)) | — (0%-1.4%(—)) | — (0%-1.4% (—)) | — (0%-1.4%(—)) | ++++ (>54% (++++)) | ++++ (>54% (++++)) | ++++ (>54% (++++)) | ++++ (>54% (++++)) |  | 
WRMLIDFRVLNKLTDKGA [FRT3-4/5] |  | — (0%-1.4%(—)) |  | +++ (40.1%-54% (+++)) |  | — (0%-1.4%(—)) |  | — (0%-1.4%(—)) |  | 
